ChEMBL document CHEMBL1201862, “PubChem BioAssay data set” (2004)
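Values below derive from 48-hour exposures of cells grown in 96-well plates, with endpoints linearly interpolated between the two concentrations bracketing the appropriate inhibition level. GI50: concentration for 50% inhibition of growth.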 Activity calls are given as the source filed them. No stated cut-off is given here; in the data, active = GI50 up to about 1.1 µM and inactive = higher.

Experiments:
Assay in all cases: DTP human tumour cell line panel, 48 h
MDA-MB-231 = test system: MDA-MB-231
SNB-19 = test system: SNB-19
786-0 = test system: 786-0
UO-31 = test system: UO-31
NCI/ADR-RES = test system: NCI/ADR-RES
ACHN = test system: ACHN
IGROV-1 = test system: IGROV-1
SF-539 = test system: SF-539
MDA-N = test system: MDA-N
HL-60 = test system: HL-60
SF-268 = test system: SF-268
A549 = test system: A549
RPMI-8226 = test system: RPMI-8226
A498 = test system: A498
UACC-62 = test system: UACC-62
KM12 = test system: KM12
NCI-H522 = test system: NCI-H522
M14 = test system: M14
RXF 393 = test system: RXF 393

SMILES | GI50 (MDA-MB-231) | GI50 (SNB-19) | GI50 (786-0) | GI50 (UO-31) | GI50 (NCI/ADR-RES) | GI50 (ACHN) | GI50 (IGROV-1) | GI50 (SF-539) | GI50 (MDA-N) | GI50 (HL-60) | GI50 (SF-268) | GI50 (A549) | GI50 (RPMI-8226) | GI50 (A498) | GI50 (UACC-62) | GI50 (KM12) | GI50 (NCI-H522) | GI50 (M14) | GI50 (RXF 393)
O=C(O)COc1cc(-c2ccccc2)nc2cc(F)ccc12 | > 100 µM (inactive) | > 100 µM (inactive) | > 100 µM (inactive) | 64.7 µM (inactive) | > 100 µM (inactive) | > 100 µM (inactive) | > 100 µM (inactive) | > 100 µM (inactive) | > 100 µM (inactive) | > 100 µM (inactive) | > 100 µM (inactive) | > 100 µM (inactive) | > 100 µM (inactive) | > 100 µM (inactive) | > 100 µM (inactive) | > 100 µM (inactive) | > 100 µM (inactive) | > 100 µM (inactive) | –
COc1ccc2c(c1)-c1c(c3cc(OC)ccc3n1CCCN(C)C)CC2 | 13 µM (inactive) | 14.6 µM (inactive) | 9.04 µM (inactive) | 10.8 µM (inactive) | 12.7 µM (inactive) | 14.3 µM (inactive) | 2.93 µM (inactive) | – | 4.79 µM (inactive) | 15.3 µM (inactive) | 10.7 µM (inactive) | 12.1 µM (inactive) | 5.24 µM (inactive) | 13.4 µM (inactive) | 6.98 µM (inactive) | 7.93 µM (inactive) | 9.91 µM (inactive) | 2.03 µM (inactive) | 6.93 µM (inactive)
CCCCOC(=O)C1CN2C=CC=NC2=NC1(C(F)(F)F)C(F)(F)F (stereo unspecified) | > 100 µM (inactive) | > 100 µM (inactive) | > 100 µM (inactive) | > 100 µM (inactive) | > 100 µM (inactive) | > 100 µM (inactive) | > 100 µM (inactive) | > 100 µM (inactive) | > 100 µM (inactive) | > 100 µM (inactive) | > 100 µM (inactive) | > 100 µM (inactive) | > 100 µM (inactive) | > 100 µM (inactive) | > 100 µM (inactive) | > 100 µM (inactive) | – | > 100 µM (inactive) | > 100 µM (inactive)
CCC(=O)c1ccc2[nH]c3c(C)c4c(O)cc(C)nc4c(C)c3c2c1 | 40.8 µM (inactive) | > 100 µM (inactive) | > 100 µM (inactive) | > 100 µM (inactive) | > 100 µM (inactive) | > 100 µM (inactive) | > 100 µM (inactive) | > 100 µM (inactive) | > 100 µM (inactive) | > 100 µM (inactive) | > 100 µM (inactive) | > 100 µM (inactive) | – | > 100 µM (inactive) | – | > 100 µM (inactive) | > 100 µM (inactive) | > 100 µM (inactive) | > 100 µM (inactive)
c1ccc(NN=C(c2ccccn2)c2ccccn2)nc1 | 0.389 µM (active) | 0.598 µM (active) | 0.142 µM (active) | 0.0267 µM (active) | 0.157 µM (active) | 0.159 µM (active) | 0.0153 µM (active) | 1.71 µM (inactive) | 0.533 µM (active) | – | 0.388 µM (active) | 0.384 µM (active) | 0.211 µM (active) | 0.447 µM (active) | 0.153 µM (active) | 0.552 µM (active) | < 0.01 µM (active) | 0.152 µM (active) | 0.583 µM (active)
O=S(=O)(O)c1c(/N=N/c2c(O)ccc3ccccc23)ccc2ccccc12 | > 100 µM (inactive) | > 100 µM (inactive) | > 100 µM (inactive) | 76.7 µM (inactive) | > 100 µM (inactive) | – | 79.8 µM (inactive) | – | > 100 µM (inactive) | – | 51.4 µM (inactive) | > 100 µM (inactive) | > 100 µM (inactive) | > 100 µM (inactive) | > 100 µM (inactive) | > 100 µM (inactive) | 93.5 µM (inactive) | > 100 µM (inactive) | > 100 µM (inactive)
COc1ccc2c(c1)-c1nc(=S)n(CCN(C)C)c3ccc([N+](=O)[O-])c(c13)N2 | 1.23 µM (inactive) | 0.828 µM (active) | 0.462 µM (active) | 0.794 µM (active) | 1.09 µM (active) | 0.345 µM (active) | 0.832 µM (active) | 0.824 µM (active) | 0.948 µM (active) | – | 0.671 µM (active) | 0.515 µM (active) | 0.573 µM (active) | 8.13 µM (inactive) | 10.6 µM (inactive) | 0.971 µM (active) | 0.533 µM (active) | 2.94 µM (inactive) | 1.1 µM (active)
CN(c1ccccc1)S(=O)(=O)c1ccccc1[N+](=O)[O-] | 67.9 µM (inactive) | > 100 µM (inactive) | > 100 µM (inactive) | > 100 µM (inactive) | > 100 µM (inactive) | > 100 µM (inactive) | > 100 µM (inactive) | > 100 µM (inactive) | > 100 µM (inactive) | > 100 µM (inactive) | > 100 µM (inactive) | > 100 µM (inactive) | 37.8 µM (inactive) | – | > 100 µM (inactive) | > 100 µM (inactive) | 64.3 µM (inactive) | > 100 µM (inactive) | > 100 µM (inactive)
